Structures are written as SMILES.

In one assay the target is T1, ERβ (Homo sapiens, UniProt Q92731).
T1 construct: host or cells: Sf9 cells
Kind of assay: Radioligand binding assay, steroid hormone receptor ERβ. The following applies: MAP4343 10 µM; 0.5 nM [^3H] Estradiol; Human recombinant Sf9 cells; second ER row. The protocol: (§1) Binding affinity of 3β-methoxy-PREG (MAP4343) for receptors of steroid hormones was evaluated using radioligand binding assays.
(§2) Table 3. Affinity of MAP4343 (10 µM) for steroid hormones receptors measured by radioligand binding assays. […] None of the results met significance criteria at concentrations used.

Assay [1] concerns the target T2, Glucorticoid Receptor (GR) (Homo sapiens, UniProt P04150).
T2 construct: Human HeLa S3 cells; endogenous in cells; host or cells: HeLa S3
Kind of assay: Radioligand binding assay, steroid hormone receptor GR. To be noted: MAP4343 10 µM; 3 nM [^3H] Dexamethasone; Human HeLa S3 cells. The protocol:
as §1, §2

For assay [2], the target named is T3, Muscarinic (Cholinergic) M2 (Homo sapiens, UniProt P08172).
T3 construct: expressed in transfected cells; host or cells: CHO cells
T3 sequence (P08172 whole entry): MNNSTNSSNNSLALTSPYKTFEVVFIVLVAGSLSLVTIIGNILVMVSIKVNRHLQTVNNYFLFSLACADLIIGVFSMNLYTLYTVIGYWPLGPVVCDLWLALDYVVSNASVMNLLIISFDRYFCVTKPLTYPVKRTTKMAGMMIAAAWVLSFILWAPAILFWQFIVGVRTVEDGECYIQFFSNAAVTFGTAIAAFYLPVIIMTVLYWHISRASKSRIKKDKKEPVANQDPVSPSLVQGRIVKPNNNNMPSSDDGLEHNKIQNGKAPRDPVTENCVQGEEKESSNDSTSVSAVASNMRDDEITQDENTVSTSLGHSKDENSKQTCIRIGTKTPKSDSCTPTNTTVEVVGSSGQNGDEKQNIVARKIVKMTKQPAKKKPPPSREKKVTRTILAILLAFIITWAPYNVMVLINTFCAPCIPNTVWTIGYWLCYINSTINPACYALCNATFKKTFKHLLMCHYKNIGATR
Nature of the assay: CNS receptor binding assay, M2. The following applies: MAP4343 10 µM; [^3H] AF-DX 384; Human recombinant (CHO cells); read-out: % Inhibition of control specific binding. The protocol:
(§3) MAP4343 has been screened for in vitro affinity to 80 different CNS neurotransmitters receptors using various validated binding assays.
(§4) Table 4. In vitro affinity of MAP4343 (10 µM) for CNS neurotransmitter receptors associated with side effects and/or abuse liability. Data are the average of two individual assays for each receptor and are expressed as % inhibition of the control specific binding of the reference compound. Results showing an inhibition higher than 50% are considered to represent significant effects of the test compound.

The next assay has as its system Noradrenergic α1. Kind of assay: CNS receptor binding assay, α1. The following applies: MAP4343 10 µM; [^3H] prazosin; rat cerebral cortex. The protocol: as §3, §4
The next assay deals with Serotoninergic 5-HT5A (Homo sapiens, UniProt P47898). Nature of the assay: CNS receptor binding assay, 5-HT5A. To be noted: MAP4343 10 µM; [^3H] LSD; Human recombinant (CHO cells); read-out: % Inhibition of control specific binding. The protocol: as §3, §4
Chain of Serotoninergic 5-HT5A (P47898 whole entry): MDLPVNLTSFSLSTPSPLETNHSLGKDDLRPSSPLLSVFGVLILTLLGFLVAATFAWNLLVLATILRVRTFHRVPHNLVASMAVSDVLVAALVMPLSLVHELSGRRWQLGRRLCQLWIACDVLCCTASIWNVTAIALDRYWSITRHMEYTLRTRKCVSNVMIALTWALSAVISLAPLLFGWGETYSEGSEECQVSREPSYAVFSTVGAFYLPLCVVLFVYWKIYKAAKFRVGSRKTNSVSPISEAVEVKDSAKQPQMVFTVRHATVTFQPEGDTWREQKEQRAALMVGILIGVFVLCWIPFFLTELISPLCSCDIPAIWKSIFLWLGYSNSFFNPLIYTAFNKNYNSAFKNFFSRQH
The next assay has as its target Dopaminergic D1 (Homo sapiens, UniProt P21728). Kind of assay: CNS receptor binding assay, D1. To be noted: MAP4343 10 µM; [^3H] SCH 23390; Human recombinant (CHO cells); read-out: % Inhibition of control specific binding. The protocol:
as §3, §4

Another assay addresses Dopaminergic D2S (Homo sapiens, UniProt P14416). Kind of assay: CNS receptor binding assay, D2S. To be noted: MAP4343 10 µM; [^3H] spiperone; Human recombinant (HEK-293 cells); read-out: % Inhibition of control specific binding. The protocol:
as §3, §4

Assay [3] relates to Wistar Kyoto (WKY) rats. Kind of assay: Elevated-plus maze (EPM), WKY rats. To be noted: acute, MAP4343 10 mg/kg s.c., fluoxetine 10 mg/kg, ketamine 30 mg/kg i.p., Fig. 5D. The assay is classed as in vivo, rat. The protocol: After a 6-day period of acclimatization, all experimental groups received daily successive subcutaneous (250 µl per rat) and intraperitoneal (1 ml/kg) injections. WI rats received injection of vehicle (sesame oil + saline) while WKY rats were randomly assigned to […], as follow: KWY rats receiving only vehicle (sesame oil + saline) and WKY rats treated with MAP4343 (10 mg/kg, s.c.; rats received in parallel i.p. injections of saline), fluoxetine (10 mg/kg i.p., rats received in parallel s.c. injections of sesame oil) or ketamine (30 mg/kg, i.p.; rats received in parallel s.c. injections of sesame oil) (see Figure 3).
After, a 6-day period of acclimatization, the acute phase of treatment started for 4 days during behavioral tests were performed (Figure 3). All animals were injected 1h30 before the starting of behavioral test.
We used the elevated-plus maze (EPM) as an assay of anxiety-related behavior in rodents (Walf and Frye, 2007). Rats were initially placed in the center of the plus-maze, consisting of two open arms (50 x 10 cm) and two closed arms (50 x 10 cm enclosed by 40 cm walls), in a 50 lux illuminated room and videotaped during 5 min using a computerized system (VideoTrack V2.5, ViewPoint, Lyon, France). The time spent in the open versus closed arms was blindly measured by two independent experimenters from the recorded video, and the open arm-index was calculated as follow: time in the open arms (sec) / [time in open arms (sec) + time in closed arms (sec)].

Assay [4] concerns Wistar Kyoto (WKY) rats. Kind of assay: Forced swimming test (FST), WKY rats. To be noted: dose-ranging, MAP4343 15 mg/kg, Fig. 6B. Format: in vivo, rat. The protocol: 3B-methoxy-PREG (also referred to as "MAP4343" in Example 4) was dissolved in sesame oil by sonication using a Sonifer-450 (Branson Ultrasonics Corporation, Danbury, USA) during 1 cycle of 5 pulses in sesame oil. Fluoxetine (Biotrend, Köln, Germany) and Ketamine (Sigma-Aldrich, St-Quentin Fallvier, France) were dissolved in sterile saline solution (NaCl 0.9%). The drug formulations were prepared freshly each day of treatment. MAP4343 was administered subcutaneously (ranging of 1-15 mg/Kg/day) while fluoxetine and ketamine were injected intraperitonealy (10 mg/Kg/day and 30 mg/Kg/day, respectively).
After a 6-day period of acclimatization, all experimental groups received daily successive subcutaneous (250 µl per rat) and intraperitoneal (1 ml/kg) injections. […]
Rats were submitted to the forced swimming test (FST), according the procedure initially described by (Detke et al., 1995) and slightly modified by (Bianchi et al., 2002). […] The pre-test and test sessions were recorded using a video camera placed above the cylinder for subsequent behavioral analysis. The immobility time (in sec) was blindly measured by two independent experimenters from recorded videos. […]
The effects of a dose-ranging administration of MAP4343 were tested in WI and WKY rats on their immobility time measured in FST.

Assay [5] has as its target purified tubulin and MAP2 (Homo sapiens, UniProt P11137). Kind of assay: Microtubule polymerization activity (optical density at 345 nm). The assay is classed as biochemical. To be noted: increase in optical density at 345 nm, 37 °C, in the presence of GTP. The protocol: Activity is measured by the increase in optical density at 345 nm of a mixture of purified tubulin and MAP2, incubated at 37 °C in the presence of GTP.

For the next assay, the system named is PC12 cells. Nature of the assay: Stimulation of neuritic sprouting. Format: cell-based. The following applies: PC12 cells differentiated with NGF (10 ng/ml), steroid 30 µM, 3 days; relative to PREG. As for the experimental part:
Stimulation of neuritic sprouting is conducted on PC12 cells differentiated in the presence of NGF (10 ng/ml) and the steroid being tested (30 µM) for 3 days. For each condition, the average length of the longest 200 neurites […] is measured simultaneously for 3 cultures.

T1 sequence (Q92731 whole entry): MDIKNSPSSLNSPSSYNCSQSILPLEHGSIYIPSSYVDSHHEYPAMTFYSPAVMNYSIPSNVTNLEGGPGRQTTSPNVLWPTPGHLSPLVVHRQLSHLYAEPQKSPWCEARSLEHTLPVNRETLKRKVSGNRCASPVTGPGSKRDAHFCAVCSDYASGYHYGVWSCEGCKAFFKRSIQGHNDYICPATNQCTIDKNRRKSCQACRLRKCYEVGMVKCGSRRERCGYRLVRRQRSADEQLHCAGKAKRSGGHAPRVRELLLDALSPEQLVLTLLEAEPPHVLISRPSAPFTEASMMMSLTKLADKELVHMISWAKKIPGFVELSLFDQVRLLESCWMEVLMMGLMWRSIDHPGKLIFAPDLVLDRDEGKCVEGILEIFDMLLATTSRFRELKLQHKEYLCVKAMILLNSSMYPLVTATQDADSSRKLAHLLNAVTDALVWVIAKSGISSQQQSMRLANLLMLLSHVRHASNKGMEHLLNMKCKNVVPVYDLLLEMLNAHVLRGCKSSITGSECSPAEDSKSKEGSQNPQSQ
T2 sequence (P04150 whole entry): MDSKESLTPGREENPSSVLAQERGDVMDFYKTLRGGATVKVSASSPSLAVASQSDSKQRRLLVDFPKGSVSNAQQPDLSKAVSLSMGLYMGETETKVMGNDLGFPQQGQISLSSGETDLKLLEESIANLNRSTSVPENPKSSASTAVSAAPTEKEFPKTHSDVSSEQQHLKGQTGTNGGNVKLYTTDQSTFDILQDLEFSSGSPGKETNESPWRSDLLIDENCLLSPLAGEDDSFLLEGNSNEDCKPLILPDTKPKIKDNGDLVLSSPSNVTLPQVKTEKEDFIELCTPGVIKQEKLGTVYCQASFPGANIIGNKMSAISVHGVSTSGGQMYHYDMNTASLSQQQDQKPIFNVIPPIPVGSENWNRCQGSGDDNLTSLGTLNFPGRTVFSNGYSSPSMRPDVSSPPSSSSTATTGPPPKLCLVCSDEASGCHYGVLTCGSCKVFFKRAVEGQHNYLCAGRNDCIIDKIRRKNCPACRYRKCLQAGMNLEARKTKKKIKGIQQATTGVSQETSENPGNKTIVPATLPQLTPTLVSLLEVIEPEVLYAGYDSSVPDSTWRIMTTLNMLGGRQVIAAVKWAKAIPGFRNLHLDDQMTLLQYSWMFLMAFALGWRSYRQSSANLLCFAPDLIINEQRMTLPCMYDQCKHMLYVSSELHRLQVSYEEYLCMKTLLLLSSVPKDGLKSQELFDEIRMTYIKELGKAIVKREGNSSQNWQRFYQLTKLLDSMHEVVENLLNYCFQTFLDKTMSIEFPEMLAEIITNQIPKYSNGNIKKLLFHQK
Chain of Dopaminergic D2S (P14416 1-414 isoform P14416-2): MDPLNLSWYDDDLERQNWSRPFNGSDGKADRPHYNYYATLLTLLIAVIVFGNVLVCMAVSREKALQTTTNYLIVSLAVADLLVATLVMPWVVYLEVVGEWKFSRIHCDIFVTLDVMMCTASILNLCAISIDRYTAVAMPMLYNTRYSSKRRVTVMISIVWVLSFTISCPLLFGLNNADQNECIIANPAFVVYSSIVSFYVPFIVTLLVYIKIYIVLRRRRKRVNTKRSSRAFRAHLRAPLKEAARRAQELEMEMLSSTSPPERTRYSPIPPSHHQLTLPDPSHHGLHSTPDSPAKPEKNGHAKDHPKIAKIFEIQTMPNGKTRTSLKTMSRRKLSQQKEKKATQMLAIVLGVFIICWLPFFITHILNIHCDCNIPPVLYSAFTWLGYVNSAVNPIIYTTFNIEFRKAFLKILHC
Chain of Dopaminergic D1 (P21728 whole entry): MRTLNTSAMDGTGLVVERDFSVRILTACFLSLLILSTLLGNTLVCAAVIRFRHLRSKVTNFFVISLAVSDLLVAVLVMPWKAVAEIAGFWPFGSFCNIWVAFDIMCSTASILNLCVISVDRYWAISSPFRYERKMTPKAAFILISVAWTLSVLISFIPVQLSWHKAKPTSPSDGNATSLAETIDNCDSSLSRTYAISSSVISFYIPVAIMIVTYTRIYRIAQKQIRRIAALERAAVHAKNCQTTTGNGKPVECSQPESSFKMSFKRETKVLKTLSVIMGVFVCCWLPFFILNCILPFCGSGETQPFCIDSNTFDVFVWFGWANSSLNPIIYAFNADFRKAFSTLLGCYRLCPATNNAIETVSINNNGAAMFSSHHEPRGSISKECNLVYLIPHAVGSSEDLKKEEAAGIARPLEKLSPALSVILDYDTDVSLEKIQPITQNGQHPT
Chain of purified tubulin and MAP2 (P11137 whole entry): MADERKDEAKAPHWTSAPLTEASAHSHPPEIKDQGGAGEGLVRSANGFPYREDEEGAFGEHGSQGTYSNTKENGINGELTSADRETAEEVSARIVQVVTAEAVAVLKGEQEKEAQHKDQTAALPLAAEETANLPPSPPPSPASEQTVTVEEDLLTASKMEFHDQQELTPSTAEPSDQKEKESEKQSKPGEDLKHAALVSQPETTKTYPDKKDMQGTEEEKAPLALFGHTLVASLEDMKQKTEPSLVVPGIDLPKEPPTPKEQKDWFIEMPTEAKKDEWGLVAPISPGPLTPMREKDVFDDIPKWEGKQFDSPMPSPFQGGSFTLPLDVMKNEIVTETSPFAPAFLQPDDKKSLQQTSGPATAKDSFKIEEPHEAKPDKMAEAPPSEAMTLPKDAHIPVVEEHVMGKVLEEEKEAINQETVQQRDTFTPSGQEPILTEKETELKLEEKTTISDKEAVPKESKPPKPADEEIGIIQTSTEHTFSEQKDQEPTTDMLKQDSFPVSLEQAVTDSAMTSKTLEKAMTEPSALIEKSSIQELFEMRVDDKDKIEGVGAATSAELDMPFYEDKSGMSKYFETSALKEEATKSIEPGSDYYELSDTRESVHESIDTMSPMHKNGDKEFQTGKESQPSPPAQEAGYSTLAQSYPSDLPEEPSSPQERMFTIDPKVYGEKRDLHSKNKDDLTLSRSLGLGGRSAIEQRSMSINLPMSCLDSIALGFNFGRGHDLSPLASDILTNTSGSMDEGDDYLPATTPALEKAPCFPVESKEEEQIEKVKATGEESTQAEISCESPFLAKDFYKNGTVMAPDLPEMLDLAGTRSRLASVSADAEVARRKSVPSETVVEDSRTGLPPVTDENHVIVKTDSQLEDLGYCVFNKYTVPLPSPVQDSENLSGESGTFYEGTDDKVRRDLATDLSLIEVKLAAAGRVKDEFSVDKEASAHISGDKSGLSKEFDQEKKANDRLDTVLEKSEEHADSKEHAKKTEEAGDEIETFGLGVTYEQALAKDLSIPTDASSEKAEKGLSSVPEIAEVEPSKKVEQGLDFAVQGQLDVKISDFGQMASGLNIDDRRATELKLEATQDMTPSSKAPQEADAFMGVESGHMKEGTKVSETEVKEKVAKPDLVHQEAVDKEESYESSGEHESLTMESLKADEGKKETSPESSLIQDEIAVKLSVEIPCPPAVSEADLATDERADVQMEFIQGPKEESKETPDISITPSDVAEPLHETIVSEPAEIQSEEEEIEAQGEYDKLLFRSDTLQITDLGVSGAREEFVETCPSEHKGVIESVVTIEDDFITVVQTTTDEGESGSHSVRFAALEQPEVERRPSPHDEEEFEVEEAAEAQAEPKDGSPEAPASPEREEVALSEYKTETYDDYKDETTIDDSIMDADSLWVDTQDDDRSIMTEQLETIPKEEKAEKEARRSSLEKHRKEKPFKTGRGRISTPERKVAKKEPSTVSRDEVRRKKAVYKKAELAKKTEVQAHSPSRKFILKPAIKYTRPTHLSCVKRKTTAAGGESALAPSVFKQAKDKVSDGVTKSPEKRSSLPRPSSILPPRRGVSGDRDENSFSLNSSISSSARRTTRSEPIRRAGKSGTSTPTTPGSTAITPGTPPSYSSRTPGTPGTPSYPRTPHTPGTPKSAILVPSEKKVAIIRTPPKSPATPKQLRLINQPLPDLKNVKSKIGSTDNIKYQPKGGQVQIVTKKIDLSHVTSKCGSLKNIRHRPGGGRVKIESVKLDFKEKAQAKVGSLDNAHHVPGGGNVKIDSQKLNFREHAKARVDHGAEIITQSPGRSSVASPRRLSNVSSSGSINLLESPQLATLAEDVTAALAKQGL

With `CO[C@H]1CC[C@@]2(C)C(=CC[C@H]3[C@@H]4CC[C@H](C(C)=O)[C@@]4(C)CC[C@@H]32)C1` (stereo in doubt) [MAP4343, 3β-methoxy-pregna-5-ene-20-one], the % inhibition (as a rule, the percentage by which the read-out fell short of the control) is recorded as 16% at ERβ and 21% in assay [1]. In addition, the inhibition (in general, the change of the read-out against control, counted positive when it falls) at 10 µM at ERβ is < 25%; in [1], < 25%; in assay [2], 20%; on Serotoninergic 5-HT5A it was -5%; at Dopaminergic D1 it was 2%; at Dopaminergic D2S, 6%. Also, the “% Inhibition of control specific binding” value with Noradrenergic α1 was determined as 4%. The “open-arm (OA) index, change when compared to WKY receiving vehicle alone” value in the assay with Wistar Kyoto (WKY) rats [3] is listed as 165%. The “immobility time measured in FST, change as compared to WKY receiving vehicle alone” value in the assay with Wistar Kyoto (WKY) rats [4] was -25%. In assay [5], the Activity was 100% of PREG. The Neuritic sprouting result with PC12 cells is “+++”.
